# Experimental data reported in patent US9925251B2, “Treatments for Mycobacterium tuberculosis” (priority 2011, dated 2018).
# “Also recorded” adds a separate entry of the source. Read-outs that look alike come from different tables or passages of the source. Starred links: 1 amine or outer side, 2 acyl side, 3 side chain; linkers in the order of their positions; H or OH if unused. Non-standard residues stand in square brackets, D forms with d. No end group written: not given here. *: point of attachment. Dpa(Dnp) = O=C([C@H](CNc1ccc([N+](=O)[O-])cc1[N+](=O)[O-])N[*:1])[*:2]; Mca = COc1ccc2c(CC(=O)*)cc(=O)oc2c1; Suc = O=C(CCC(=O)[*:2])[*:1]; Nle = CCCC[C@H](N)C(=O)O; Cbz = O=C(OCc1ccccc1)*; amc = not defined here
# Experiments:
# Mtb ClpP1P2 [1] = biological target: T1, Mtb ClpP1P2 (Mycobacterium tuberculosis, UniProt P9WPC3+P9WPC5); type: biochemical; conditions: for cleavage by ClpP1P2 (in words): activator present
# Mtb ClpP1P2 [2] = biological target: T1, Mtb ClpP1P2; experiment: biochemical; type: biochemical
# ClpC1 ATPase = ClpC1 ATPase (Mycobacterium tuberculosis, UniProt P9WPC9); type: biochemical
# Chain of ClpC1 ATPase (P9WPC9 whole entry): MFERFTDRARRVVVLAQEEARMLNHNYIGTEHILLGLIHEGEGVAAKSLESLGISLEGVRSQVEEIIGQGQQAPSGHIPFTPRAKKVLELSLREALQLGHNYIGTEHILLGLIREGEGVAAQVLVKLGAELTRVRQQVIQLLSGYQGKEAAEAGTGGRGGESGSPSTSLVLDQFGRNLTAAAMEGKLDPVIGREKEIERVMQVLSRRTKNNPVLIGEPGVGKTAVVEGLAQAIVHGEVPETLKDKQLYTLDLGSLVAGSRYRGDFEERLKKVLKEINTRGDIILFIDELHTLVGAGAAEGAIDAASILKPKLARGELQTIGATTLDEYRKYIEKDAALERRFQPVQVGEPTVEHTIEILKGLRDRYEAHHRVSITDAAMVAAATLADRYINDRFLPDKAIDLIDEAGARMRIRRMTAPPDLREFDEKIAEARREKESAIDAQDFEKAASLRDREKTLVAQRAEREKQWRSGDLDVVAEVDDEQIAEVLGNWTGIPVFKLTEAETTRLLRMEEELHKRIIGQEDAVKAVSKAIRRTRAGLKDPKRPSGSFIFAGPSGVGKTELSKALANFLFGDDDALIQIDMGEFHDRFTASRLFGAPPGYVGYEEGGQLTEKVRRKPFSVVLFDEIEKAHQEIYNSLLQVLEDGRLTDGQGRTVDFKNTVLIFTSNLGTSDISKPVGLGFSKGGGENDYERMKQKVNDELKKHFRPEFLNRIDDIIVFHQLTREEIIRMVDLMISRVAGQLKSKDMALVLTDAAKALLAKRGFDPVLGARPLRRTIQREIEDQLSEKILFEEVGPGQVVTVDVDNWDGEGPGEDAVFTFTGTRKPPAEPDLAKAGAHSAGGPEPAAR
# Msm ptet_clpP2 = type: cell-based, Mycobacterium smegmatis; conditions: for growth of strain: sub-MIC concentration
# Mtb ClpP1P2 [3] = biological target: T1, Mtb ClpP1P2; type: biochemical
# Mtb ClpP1P2 [4] = biological target: T1, Mtb ClpP1P2; type: biochemical; conditions: 10 best substrates each with Met, Leu, Phe, Ala at P1; library screening
# [5] = Peptide Aldehydes (0.5 mM), peptidase activity with Z-Gly-Gly-Leu-amc, maximal activation by Z-Leu-Nle-aldehyde taken as 100%
# [6] = Peptide Derivatives (1 mM), peptidase activity with Z-Gly-Gly-Leu-amc, Z-Leu-Leu-aldehyde 100.0
# [7] = low concentration of ATc (ClpP2 partially depleted)
# [8] = substance is the substrate, Z-Gly-Gly-Leu-amc = 100
compound,measurement,setting,value
Cc1cc(=O)oc2cc(NC(=O)C(C)N)ccc12 (stereo not drawn) [Ala-amc],RELATIVE RATES OF HYDROLYSIS (%),Mtb ClpP1P2 [1],0.78%
Cc1cc(=O)oc2cc(NC(=O)[C@@H](N)CC(C)C)ccc12 [Leu-amc],RELATIVE RATES OF HYDROLYSIS (%),Mtb ClpP1P2 [1],0.36%
Cc1cc(=O)oc2cc(NC(=O)C(N)Cc3ccccc3)ccc12 (stereo not drawn) [Phe-amc],RELATIVE RATES OF HYDROLYSIS (%),Mtb ClpP1P2 [1],0.26%
CC(C)C[C@@H](C=O)NC(=O)[C@H](CC(C)C)NC(=O)OCc1ccccc1 [Z-Leu-Leu-aldehyde],Kd,Mtb ClpP1P2 [2],240 µM
same,RELATIVE ACTIVITY (%),Mtb ClpP1P2 [2]; [5],77.6%
same,RELATIVE ACTIVITY (%),Mtb ClpP1P2 [2]; [6],100.0%
same,stimulation of ClpP1P2 activity (in words),Mtb ClpP1P2 [2]; against Z-Gly-Gly-Leu-AMC,strongest stimulation
CC(C)C[C@H](NC(=O)[C@H](CC(C)C)NC(=O)OCc1ccccc1)C(=O)O [Z-Leu-Leu],Kd,Mtb ClpP1P2 [2],2200 µM
same,RELATIVE ACTIVITY (%),"Mtb ClpP1P2 [2]; Active enzyme diluted (200x) without activator, then activator re-added",96.0%
same,RELATIVE ACTIVITY (%),"Mtb ClpP1P2 [2]; Active enzyme diluted (200x), with activator",100.0%
same,RELATIVE ACTIVITY (%),"Mtb ClpP1P2 [2]; Active enzyme diluted (200x), without activator",1.2%
same,RELATIVE ACTIVITY (%),Mtb ClpP1P2 [2]; [6],18.5%
same,stimulation of ClpP1P2 activity (in words),Mtb ClpP1P2 [2]; against Z-Gly-Gly-Leu-AMC,could also activate ClpP1P2
same,effect on ClpC1 ATPase activity (in words),ClpC1 ATPase,did not influence
CC(C)C[C@@H](CO)NC(=O)OCc1ccccc1 [Z-Leu-alcohol],RELATIVE ACTIVITY (%),Mtb ClpP1P2 [2],2.4%
CC(C)C[C@H](NC(=O)OCc1ccccc1)C(=O)O [Z-Leu],RELATIVE ACTIVITY (%),Mtb ClpP1P2 [2],5.3%
same,stimulation of ClpP1P2 activity (in words),Mtb ClpP1P2 [2],much smaller stimulation
NCC[C@H](O)C(=O)N[C@@H]1C[C@H](N)[C@@H](O[C@H]2O[C@H](CN)[C@@H](O)[C@H](O)[C@H]2O)[C@H](O)[C@H]1O[C@H]1O[C@H](CO)[C@@H](O)[C@H](N)[C@H]1O [amikacin],growth of strain,Msm ptet_clpP2; high concentration of ATc,no effect on growth
same,growth of strain,Msm ptet_clpP2; [7],significantly inhibited the growth
O=C(N[C@H](CO)[C@H](O)c1ccc([N+](=O)[O-])cc1)C(Cl)Cl [chloramphenicol],"viability, low versus high ATc",Msm ptet_clpP2; sublethal concentration,no difference in viability
O=c1oc(Cl)c(Cl)c2ccccc12 [dichloroisocoumarin],inhibition of ClpP1P2 activity (in words),Mtb ClpP1P2 [3],sensitive; also recorded: completely inhibit
Oc1c(Cl)cc(Cl)c(Cl)c1Cc1c(O)c(Cl)cc(Cl)c1Cl [hexachlorophene],effect on ClpC1 ATPase activity (in words),ClpC1 ATPase,inhibits
same,concentration at which the inhibitor works,ClpC1 ATPase; inhibition of ClpC1 ATPase activity,5 to 10 mM
[H]/N=C(/N)N[C@H]1[C@H](O)[C@@H](O)[C@H](O[C@@H]2O[C@@H](C)[C@](O)(C=O)[C@H]2O[C@@H]2O[C@@H](CO)[C@H](O)[C@@H](O)[C@@H]2NC)[C@@H](N/C(N)=N\[H])[C@@H]1O [streptomycin],growth of strain,Msm ptet_clpP2; high concentration of ATc,no effect on growth
same,growth of strain,Msm ptet_clpP2; [7],significantly inhibited the growth
Ac-Nle-Pro-Nle-Asp-amc,RELATIVE RATES OF HYDROLYSIS (%),Mtb ClpP1P2 [1]; [8],36.0%
Ala-Ala-Phe-amc,RELATIVE RATES OF HYDROLYSIS (%),Mtb ClpP1P2 [1]; [8],87.0%
Asp-amc,RELATIVE RATES OF HYDROLYSIS (%),Mtb ClpP1P2 [1],0.1%
Cbz-AP[Nle]D-aldehyde,RELATIVE ACTIVITY (%),Mtb ClpP1P2 [2]; [5],0.8%
Cbz-Gly-Gly-Leu,RELATIVE ACTIVITY (%),Mtb ClpP1P2 [2]; [6],3.7%
Cbz-Gly-Leu-Leu,stimulation of ClpP1P2 activity (in words),Mtb ClpP1P2 [2]; against Z-Gly-Gly-Leu-AMC,much smaller stimulation
Cbz-Phe-Tyr-aldehyde,RELATIVE ACTIVITY (%),Mtb ClpP1P2 [2]; [5],1.3%
Cbz-Val-Phe-aldehyde,RELATIVE ACTIVITY (%),Mtb ClpP1P2 [2]; [5],1.9%
same,stimulation of ClpP1P2 activity (in words),Mtb ClpP1P2 [2]; against Z-Gly-Gly-Leu-AMC,did not show any stimulatory capacity
Mca-GHQQYAMK-Dpa(Dnp)-amide (Mca-GHQQYAMK[Dpa(Dnp)]-NH2),cleavage by ClpP1P2 (in words),Mtb ClpP1P2 [1]; substance is the substrate,could cleave
Mca-GNQQYKMK-Dpa(Dnp)-amide (Mca-GNQQYKMK[Dpa(Dnp)]-NH2),cleavage by ClpP1P2 (in words),Mtb ClpP1P2 [1]; substance is the substrate,could cleave
Mca-GNTQFKRR-Dpa(Dnp)-amide (Mca-GNTQFKRR[Dpa(Dnp)]-NH2),cleavage by ClpP1P2 (in words),Mtb ClpP1P2 [1]; substance is the substrate,could cleave
Mca-KKPTPIQLN-Dpa(Dnp)-amide (Mca-KKPTPIQLN[Dpa(Dnp)]-NH2),cleavage by ClpP1P2 (in words),Mtb ClpP1P2 [1]; substance is the substrate,could cleave
N-acetyl-Pro-Lys-Met-aminomethylcoumarin [PKM],Norm RFU,Mtb ClpP1P2 [4],1497
Suc-Ala-Ala-Phe-amc,RELATIVE RATES OF HYDROLYSIS (%),Mtb ClpP1P2 [1]; [8],42.0%
Suc-Ala-Ala-Pro-Ala-amc (Suc-AAPA-amc; reading uncertain),RELATIVE RATES OF HYDROLYSIS (%),Mtb ClpP1P2 [1]; [8],0.08%
Suc-Ala-Leu-Pro-Phe-amc (Suc-ALPF-amc; reading uncertain),RELATIVE RATES OF HYDROLYSIS (%),Mtb ClpP1P2 [1]; [8],0.12%
Suc-Leu-Leu-Val-Tyr-amc (Suc-LLVY-amc; reading uncertain),RELATIVE RATES OF HYDROLYSIS (%),Mtb ClpP1P2 [1]; [8],0.8%
Suc-Leu-Tyr-amc,RELATIVE RATES OF HYDROLYSIS (%),Mtb ClpP1P2 [1]; [8],11.5%
Z-Ala-Ala-Ala-amc,RELATIVE RATES OF HYDROLYSIS (%),Mtb ClpP1P2 [1]; [8],3.6%
Z-Gly-Gly-Arg-amc,RELATIVE RATES OF HYDROLYSIS (%),Mtb ClpP1P2 [1]; [8],0.55%
Z-Gly-Gly-Leu-amc,RELATIVE RATES OF HYDROLYSIS (%),Mtb ClpP1P2 [1]; [8],100.0%
Z-Gly-Leu,RELATIVE ACTIVITY (%),Mtb ClpP1P2 [2]; [6],4.8%
same,stimulation of ClpP1P2 activity (in words),Mtb ClpP1P2 [2]; against Z-Gly-Gly-Leu-AMC,much smaller stimulation
Z-Leu-Leu-Arg-amc,RELATIVE RATES OF HYDROLYSIS (%),Mtb ClpP1P2 [1]; [8],0.25%
Z-Leu-Leu-Glu-amc,RELATIVE RATES OF HYDROLYSIS (%),Mtb ClpP1P2 [1]; [8],0.35%
Z-Leu-Leu-Leu-amc,RELATIVE RATES OF HYDROLYSIS (%),Mtb ClpP1P2 [1]; [8],0.15%
Z-Leu-Leu-alcohol,RELATIVE ACTIVITY (%),Mtb ClpP1P2 [2]; [6],17.6%
same,stimulation of ClpP1P2 activity (in words),Mtb ClpP1P2 [2]; against Z-Gly-Gly-Leu-AMC,could also activate ClpP1P2
Z-Leu-Leu-amc,RELATIVE RATES OF HYDROLYSIS (%),Mtb ClpP1P2 [1]; [8],4.7%
Z-Leu-Leu-leucinal,stimulation of ClpP1P2 activity (in words),Mtb ClpP1P2 [2]; against Z-Gly-Gly-Leu-AMC,significantly less active
Z-Leu-Nle-aldehyde,RELATIVE ACTIVITY (%),Mtb ClpP1P2 [2]; [5],100.0%
Z-Phe-Val-Arg-amc,RELATIVE RATES OF HYDROLYSIS (%),Mtb ClpP1P2 [1]; [8],0.18%
Z-Pro-Nlee-Asp-aldehyde,RELATIVE ACTIVITY (%),Mtb ClpP1P2 [2]; [5],1.2%
same,stimulation of ClpP1P2 activity (in words),Mtb ClpP1P2 [2]; against Z-Gly-Gly-Leu-AMC,did not show any stimulatory capacity
